According to patent US20030139431A1 (priority 2001, published 2003):

Columns and labels:
rNPFF2 [1] = molecular target: T1, rNPFF2 (Rattus norvegicus, UniProt Q9EQD2); assay: Binding affinity at cloned recombinant rat NPFF2 receptor
T1 construct: expressed in transfected cells

rNPFF1 [2] = molecular target: T2, rNPFF1 (Rattus norvegicus, UniProt Q9EP86); assay: Binding affinity at cloned recombinant rat NPFF1 receptor
T2 construct: expressed in transfected cells

rNPFF1 [3] = molecular target: T2, rNPFF1; assay: Functional assay (agonist potency, intrinsic activity) at cloned rat NPFF1 receptor; type: cell-based; settings: for rNPFF1 IA (intrinsic activity): percent of maximum response elicited by neuropeptide FF, rat NPFF1; for EC50: recombinant rat NPFF1
Procedure: (§1) Intrinsic activity of a compound is measured as the percent of maximum response.

rNPFF2 [4] = molecular target: T1, rNPFF2; assay: Functional assay (agonist potency, intrinsic activity) at cloned rat NPFF2 receptor; type: cell-based; settings: for rNPFF2 IA (intrinsic activity): percent of maximum response elicited by neuropeptide FF, rat NPFF2; for EC50: recombinant rat NPFF2
Procedure: as §1

T1 sequence (Q9EQD2 whole entry): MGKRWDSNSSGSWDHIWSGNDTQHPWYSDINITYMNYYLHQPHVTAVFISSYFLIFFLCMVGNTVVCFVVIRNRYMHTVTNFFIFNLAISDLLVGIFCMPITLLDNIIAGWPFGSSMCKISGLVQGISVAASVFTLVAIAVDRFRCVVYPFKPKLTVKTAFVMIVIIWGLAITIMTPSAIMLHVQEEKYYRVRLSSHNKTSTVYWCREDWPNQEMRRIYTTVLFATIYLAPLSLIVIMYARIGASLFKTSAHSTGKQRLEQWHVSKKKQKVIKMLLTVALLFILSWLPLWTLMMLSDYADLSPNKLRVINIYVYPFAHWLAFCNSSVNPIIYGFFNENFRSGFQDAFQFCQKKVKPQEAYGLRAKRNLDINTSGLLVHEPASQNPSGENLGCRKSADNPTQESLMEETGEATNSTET
T2 sequence (Q9EP86 whole entry): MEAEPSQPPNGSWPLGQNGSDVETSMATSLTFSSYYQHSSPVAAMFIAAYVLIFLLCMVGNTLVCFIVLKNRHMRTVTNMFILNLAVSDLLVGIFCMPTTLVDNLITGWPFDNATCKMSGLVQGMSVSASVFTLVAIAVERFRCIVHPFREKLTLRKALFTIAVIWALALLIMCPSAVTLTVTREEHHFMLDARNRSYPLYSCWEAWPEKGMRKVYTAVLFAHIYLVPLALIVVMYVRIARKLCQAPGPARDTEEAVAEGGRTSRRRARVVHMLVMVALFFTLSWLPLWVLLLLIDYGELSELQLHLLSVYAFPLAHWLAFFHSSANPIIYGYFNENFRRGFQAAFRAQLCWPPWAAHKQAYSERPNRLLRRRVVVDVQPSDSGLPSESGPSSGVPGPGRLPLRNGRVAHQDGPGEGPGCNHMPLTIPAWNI

Row | Ki (rNPFF2 [1]) [nM] | Ki (rNPFF1 [2]) [nM] | rNPFF1 IA (intrinsic activity) (rNPFF1 [3]) | EC50 (rNPFF1 [3]) [nM] | rNPFF2 IA (intrinsic activity) (rNPFF2 [4]) | EC50 (rNPFF2 [4]) [nM] | Structure (SMILES)
1 | 3920 | 134 | Inactive | > 10000 | 24% NPFF | 5620 | Cc1ccc2nc(NC(=N)N)nc(C)c2c1 [Compound 1002, N-(4,6-dimethyl-2-quinazolinyl)guanidine]
2 | 1640 | 238 | Inactive | > 10000 | 83% NPFF | 392 | CCc1ccc2nc(NC(=N)N)nc(C)c2c1 [Compound 1003, N-(6-ethyl-4-methyl-2-quinazolinyl)guanidine]
3 | 1490 | 710 | 36% NPFF | 1470 | 90% NPFF | 440 | Cc1nc(NC(=N)N)nc2ccc(C(C)(C)C)cc12 [Compound 1004, N-(6-tert-butyl-4-methyl-2-quinazolinyl)guanidine]
4 | 1120 | 155 | Inactive | > 10000 | 85% NPFF | 619 | CCCc1ccc2nc(NC(=N)N)nc(C)c2c1 [Compound 1008, N-(4-methyl-6-propyl-2-quinazolinyl)guanidine]
5 | > 10000 | 201 | Inactive | > 10000 | Inactive | > 10000 | COc1ccc2nc(NC(=N)N)nc(C)c2c1 [Compound 1011, N-(6-methoxy-4-methyl-2-quinazolinyl)guanidine]
6 | 2020 | 332 | Inactive | > 10000 | 52% NPFF | 690 | Cc1nc(NC(=N)N)nc2ccc(Cl)cc12 [Compound 1013, N-(6-chloro-4-methyl-2-quinazolinyl)guanidine]
7 | 3440 | 300 | Inactive | > 10000 | 47% NPFF | 2460 | Cc1nc(NC(=N)N)nc2cc(Br)ccc12 [Compound 1014, N-(7-bromo-4-methyl-2-quinazolinyl)guanidine]
8 | 1110 | 42 | Inactive | > 10000 | 56% NPFF | 272 | Cc1cc2nc(NC(=N)N)nc(C)c2cc1C [Compound 1015, N-(4,6,7-trimethyl-2-quinazolinyl)guanidine]
9 | 2500 | 565 | Inactive | > 10000 | 74% NPFF | 3160 | COc1cc2c(C)nc(NC(=N)N)nc2cc1C [Compound 1016, N-(6-methoxy-4,7-dimethyl-2-quinazolinyl)guanidine]
10 | 5920 | 234 | Inactive | > 10000 | 23% NPFF | > 10000 | Cc1cc2nc(NC(=N)N)nc(C)c2cc1O [Compound 1017, N-(6-hydroxy-4,7-dimethyl-2-quinazolinyl)guanidine]
11 | 2870 | 57 | Inactive | > 10000 | 31% NPFF | 2540 | Cc1nc(NC(=N)N)nc2cc(F)c(F)cc12 [Compound 1019, N-(6,7-difluoro-4-methyl-2-quinazolinyl)guanidine]
12 | 273 | 18 | Inactive | > 10000 | 90% NPFF | 695 | CCc1ccc2c(C)nc(NC(=N)N)nc2c1 [Compound 1020, N-(7-ethyl-4-methyl-2-quinazolinyl)guanidine]
13 | 881 | 56 | Inactive | > 10000 | 76% NPFF | 283 | Cc1nc(NC(=N)N)nc2cc(C(C)C)ccc12 [Compound 1021, N-(7-isopropyl-4-methyl-2-quinazolinyl)guanidine]
14 | 5590 | 659 | Inactive | > 10000 | Inactive | > 10000 | CCOc1ccc2c(C)nc(NC(=N)N)nc2c1 [Compound 1024, N-(7-ethoxy-4-methyl-2-quinazolinyl)guanidine]
15 | 4530 | 253 | Inactive | > 10000 | 27% NPFF | 3160 | Cc1nc(NC(=N)N)nc2cc(OC(C)C)ccc12 [Compound 1025, N-[4-methyl-7-(isopropoxy)-2-quinazolinyl]guanidine]
16 | > 10000 | 802 | Inactive | > 10000 | 19% NPFF | > 10000 | Cc1nc(NC(=N)N)nc2ccc(Br)cc12 [Compound 1026, N-(6-bromo-4-methyl-2-quinazolinyl)guanidine]
17 | 1180 | 842 | Inactive | > 10000 | 52% NPFF | 3160 | Cc1nc(NC(=N)N)nc2cc(C(C)O)ccc12 (centres unmarked) [Compound 1035, N-[7-(1-hydroxyethyl)-4-methyl-2-quinazolinyl]guanidine]

The next lines start with the compound.

Row | Structure (SMILES) | Ki (rNPFF2 [1]) [nM] | Ki (rNPFF1 [2]) [nM] | rNPFF1 IA (intrinsic activity) (rNPFF1 [3]) | EC50 (rNPFF1 [3]) [nM] | rNPFF2 IA (intrinsic activity) (rNPFF2 [4]) | EC50 (rNPFF2 [4]) [nM]
18 | Cc1nc(NC(=N)N)nc2ccc(OCCCCCOc3ccccc3)cc12 [Compound 1005, N-4-methyl-6-[(5-phenoxypentyl)oxy]-2-quinazolinylguanidine] | 2140 | 316 | Inactive | > 10000 | 21% NPFF | 3160
19 | Cc1nc(NC(=N)N)nc2cc(OCc3ccccc3)ccc12 [Compound 1006, N-[7-(benzyloxy)-4-methyl-2-quinazolinyl]guanidine] | 1070 | 410 | 15% NPFF | > 10000 | 22% NPFF | 1080
20 | CCCCCCCCc1ccc2nc(NC(=N)N)nc(C)c2c1 [Compound 1009, N-(4-methyl-6-octyl-2-quinazolinyl)guanidine] | 703 | 312 | Inactive |  | 22% NPFF | 5620
21 | Cc1nc(NC(=N)N)nc2ccc(-c3ccccc3)cc12 [Compound 1010, N-(4-methyl-6-phenyl-2-quinazolinyl)guanidine] | 3480 | 311 | Inactive | > 10000 | 22% NPFF | > 10000
22 | CCCCOc1ccc2nc(NC(=N)N)nc(C)c2c1 [Compound 1012, N-(6-butoxy-4-methyl-2-quinazolinyl)guanidine] | 4850 | 733 | Inactive | > 10000 | 80% NPFF | 1620
23 | CCCCOc1cc2nc(NC(=N)N)nc(C)c2cc1OCCCC [Compound 1018, N-(6,7-dibutoxy-4-methyl-2-quinazolinyl)guanidine] | 1300 | 303 | Inactive | > 10000 | Inactive | > 10000
24 | Cc1nc(NC(=N)N)nc2ccc(OCc3ccccc3)cc12 [Compound 1028, N-[6-(benzyloxy)-4-methyl-2-quinazolinyl]guanidine] | 817 | 386 | Inactive | > 10000 | 79% NPFF | 758
25 | Cc1nc(NC(=N)N)nc2ccc(C3CCCCC3)cc12 [Compound 1029, N-(6-cyclohexyl-4-methyl-2-quinazolinyl)guanidine] | 1200 | 912 | 28% NPFF | > 10000 | 31% NPFF | 2050
26 | Cc1nc(NC(=N)N)nc2ccc(OC(F)(F)F)cc12 [Compound 1030, N-[4-methyl-6-(trifluoromethoxy)-2-quinazolinyl]guanidine] | 4860 | 176 | Inactive | > 10000 | 85% NPFF | 625
27 | CCCCCOc1ccc2nc(NC(=N)N)nc(C)c2c1 [Compound 1031, N-[4-methyl-6-(pentyloxy)-2-quinazolinyl]guanidine] | 3220 | 794 | Inactive | > 10000 | 66% NPFF | 2190
28 | Cc1nc(NC(=N)N)nc2ccc(Oc3ccccc3)cc12 [Compound 1032, N-(4-methyl-6-phenoxy-2-quinazolinyl)guanidine] | 1640 | 291 | 31% NPFF | 374 | 93% NPFF | 459
29 | Cc1ccc(Oc2ccc3nc(NC(=N)N)nc(C)c3c2)cc1 [Compound 1033, N-[4-methyl-6-(4-methylphenoxy)-2-quinazolinyl]guanidine] | 5860 | 481 | Inactive | > 10000 | 51% NPFF | 3160
30 | Cc1nc(NC(=N)N)nc2ccc(CCCC(C)O)cc12 (centres unmarked) [Compound 1034, N-(6-[1-(4-hydroxyl-pentyl)]-4-methyl-2-quinazolino)guanidine] | 1540 | 82 | 63% NPFF | 610 | 101% NPFF | 394
